Measured values from BindingDB's records for patent US20250313563 (The Broad Institute, 2025).
Several values for one entry are separate records, joined by “and”; a condition that tells them apart may be missing. Equal entries are not always repeated.

How the values were obtained:
[1] = target: Glycogen synthase kinase-3 alpha (Homo sapiens, UniProt P49840); test: TR-FRET Assay
Procedure, shortened: (§1)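 Compound was preincubated 30 min in assay buffer before the kinase reaction, which was quenched with EDTA. Phosphorylation was detected by TR-FRET after adding a solution of 40 nM streptavidin-d2 and 2 nM Tb-labelled anti-pSer641 antibody.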

[2] = target: Glycogen synthase kinase-3 beta (Homo sapiens, UniProt P49841); test: TR-FRET Assay
Procedure, shortened: as §1

Sequence of Glycogen synthase kinase-3 alpha (P49840 whole entry): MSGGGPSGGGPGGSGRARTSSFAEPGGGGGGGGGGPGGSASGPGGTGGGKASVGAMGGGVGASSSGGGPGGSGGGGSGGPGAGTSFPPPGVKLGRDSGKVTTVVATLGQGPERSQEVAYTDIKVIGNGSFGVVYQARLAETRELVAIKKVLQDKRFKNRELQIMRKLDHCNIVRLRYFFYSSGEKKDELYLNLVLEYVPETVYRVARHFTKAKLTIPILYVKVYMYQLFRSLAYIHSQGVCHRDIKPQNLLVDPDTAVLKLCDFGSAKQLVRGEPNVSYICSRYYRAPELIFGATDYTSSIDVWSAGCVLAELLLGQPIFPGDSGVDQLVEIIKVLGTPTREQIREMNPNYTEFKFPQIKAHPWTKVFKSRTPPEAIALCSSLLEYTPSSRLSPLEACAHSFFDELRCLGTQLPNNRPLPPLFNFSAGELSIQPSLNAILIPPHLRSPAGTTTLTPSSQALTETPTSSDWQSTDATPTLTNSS
Sequence of Glycogen synthase kinase-3 beta (P49841 whole entry): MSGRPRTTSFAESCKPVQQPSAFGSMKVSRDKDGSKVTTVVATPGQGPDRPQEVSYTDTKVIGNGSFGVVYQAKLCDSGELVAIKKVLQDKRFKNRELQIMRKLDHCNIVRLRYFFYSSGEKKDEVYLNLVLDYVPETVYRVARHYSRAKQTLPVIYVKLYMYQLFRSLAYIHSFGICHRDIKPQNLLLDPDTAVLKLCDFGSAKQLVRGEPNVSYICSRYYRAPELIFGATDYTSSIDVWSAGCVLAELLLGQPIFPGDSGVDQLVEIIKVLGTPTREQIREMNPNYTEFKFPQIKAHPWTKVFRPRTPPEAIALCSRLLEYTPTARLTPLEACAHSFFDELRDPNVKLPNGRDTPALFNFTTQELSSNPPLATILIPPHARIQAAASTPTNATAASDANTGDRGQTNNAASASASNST

Compound | IC50 [1] | IC50 [2]
CC[C@@]1(c2cccc(Cc3ncccn3)c2)C2=CN=NC2NC2=C1C(=O)CC(C)(C)C2 (some centres not stated) [US20250313563, Compound 947499] | 1000 to 5000 nM and > 5000 nM | > 5000 nM
CC[C@]1(c2cccc(-c3c(F)cncc3OC)c2)C2=CN=NC2NC2=C1C(=O)CC(C)(C)C2 (some centres not stated) [US20250313563, Compound 947511] | < 100 nM | < 100 nM
CC[C@@]1(c2cccc(-c3c(F)cncc3OC)c2)C2=CN=NC2NC2=C1C(=O)CC(C)(C)C2 (some centres not stated) [US20250313563, Compound 947512] | < 100 nM | 100 to 1000 nM
CCC1(c2cccc(Cc3ncccc3C(F)(F)F)c2)C2=CN=NC2NC2=C1C(=O)CC(C)(C)C2 (configuration not stated) [US20250313563, Compound 947548] | 100 to 1000 nM | 100 to 1000 nM
CCC1(c2cccc(S(=O)(=O)C3CC3)c2)C2=C(CC(C)(C)NC2=O)NC2N=NC(C)=C21 (configuration not stated) [US20250313563, Compound 947562] | < 100 nM | < 100 nM
CCC1(c2cccc(N3CCOCC3)c2)C2=C(CC(C)(C)NC2=O)NC2N=NC(C)=C21 (configuration not stated) [US20250313563, Compound 947564] | 100 to 1000 nM | 100 to 1000 nM
CCC1(c2cccc(-c3cncn3C)c2)C2=C(CC(C)(C)NC2=O)NC2N=NC(C)=C21 (configuration not stated) [US20250313563, Compound 947565] | < 100 nM | < 100 nM
CCC1(c2cccc(N3CCCCC3)c2)C2=CN=NC2NC2=C1C(=O)NC(C)(C)C2 (configuration not stated) [US20250313563, Compound 947566] | 1000 to 5000 nM | 1000 to 5000 nM
CCC1(c2cccc(-c3cn(C)nc3C)c2)C2=C(CC(C)(C)NC2=O)NC2N=NC(C(F)(F)F)=C21 (configuration not stated) [US20250313563, Compound 947567] | < 100 nM | < 100 nM
CCC1(c2cccc(-c3c(C)nn(C)c3C)c2)C2=C(CC(C)(C)NC2=O)NC2N=NC(C(F)(F)F)=C21 (configuration not stated) [US20250313563, Compound 947568] | < 100 nM | < 100 nM
CCC1(c2cccc(-c3ccncc3S(C)(=O)=O)c2)C2=CN=NC2NC2=C1C(=O)CC(C)(C)C2 (configuration not stated) [US20250313563, Compound 947569] | < 100 nM | < 100 nM
CC[C@@]1(c2cccc(-c3cc[n+]([O-])cc3[S+](C)[O-])c2)C2=CN=NC2NC2=C1C(=O)CC(C)(C)C2 (some centres not stated) [US20250313563, Compound 947570] | 100 to 1000 nM | 1000 to 5000 nM
CC[C@@]1(c2cccc(-c3cc[n+](O)cc3[S@@+](C)[O-])c2)C2=CN=NC2NC2=C1C(=O)CC(C)(C)C2 (some centres not stated) [US20250313563, Compound 947571] | 100 to 1000 nM | 1000 to 5000 nM
CC[C@]1(c2cccc(-c3c(C)nn(C)c3C)c2)C2=C(CC(C)(C)NC2=O)NC2N=NC(C)=C21 (some centres not stated) [US20250313563, Compound 947573] | 100 to 1000 nM | 1000 to 5000 nM
CC[C@@]1(c2cccc(-c3ccncc3C)c2)C2=CN=NC2NC2=C1C(=O)NC(C)(C)C2 (some centres not stated) [US20250313563, Compound 947574] | < 100 nM | < 100 nM
COCc1cccc(S(=O)(=O)N2CCC3(CC2)C2=C(N=NC2)NC2=C3C(=O)CC(C)(C)C2)c1 [US20250313563, Compound 947605] | < 100 nM | < 100 nM
Cn1nc(C(F)(F)F)cc1S(=O)(=O)N1CCC2(CC1)C1=C(N=NC1)NC1=C2C(=O)CC(C)(C)C1 [US20250313563, Compound 947606] | < 100 nM | < 100 nM
CC(C)n1cc(S(=O)(=O)N2CCC3(CC2)C2=C(N=NC2)NC2=C3C(=O)CC(C)(C)C2)cn1 [US20250313563, Compound 947607] | < 100 nM | < 100 nM
Cc1cc(S(=O)(=O)N2CCC3(CC2)C2=C(N=NC2)NC2=C3C(=O)CC(C)(C)C2)n(C)n1 [US20250313563, Compound 947608] | < 100 nM | < 100 nM
CCn1nc(C)cc1S(=O)(=O)N1CCC2(CC1)C1=CN=NC1NC1=C2C(=O)CC(C)(C)C1 (configuration not stated) [US20250313563, Compound 947609] | < 100 nM | 100 to 1000 nM
CC1(C)CC(=O)C2=C(C1)NC1=C(CN=N1)C21CCN(S(=O)(=O)c2cnc3ccccn23)CC1 [US20250313563, Compound 947610] | < 100 nM | < 100 nM
Cc1ncc(S(=O)(=O)N2CCC3(CC2)C2=C(N=NC2)NC2=C3C(=O)CC(C)(C)C2)o1 [US20250313563, Compound 947611] | < 100 nM and 100 to 1000 nM | < 100 nM and 100 to 1000 nM
COc1ccc(S(=O)(=O)N2CCC3(CC2)C2=C(N=NC2)NC2=C3C(=O)CC(C)(C)C2)cc1Cl [US20250313563, Compound 947612] | < 100 nM | < 100 nM
CC1(C)CC(=O)C2=C(C1)NC1=C(CN=N1)C21CCN(S(=O)(=O)c2cccnc2)CC1 [US20250313563, Compound 947613] | < 100 nM and 100 to 1000 nM | < 100 nM and 1000 to 5000 nM
Cc1cnc2c(S(=O)(=O)N3CCC4(CC3)C3=C(N=NC3)NC3=C4C(=O)CC(C)(C)C3)cccc2c1 [US20250313563, Compound 947614] | < 100 nM | < 100 nM
CC1(C)CC(=O)C2=C(C1)NC1=C(CN=N1)C21CCN(S(=O)(=O)c2cnn3ccccc23)CC1 [US20250313563, Compound 947615] | < 100 nM | < 100 nM

Compound | IC50 [1] | IC50 [2]
Cc1cc(S(=O)(=O)N2CCC3(CC2)C2=C(N=NC2)NC2=C3C(=O)CC(C)(C)C2)cc(C)n1 [US20250313563, Compound 947616] | < 100 nM and 100 to 1000 nM | < 100 nM and 1000 to 5000 nM
CC[C@]1(c2cccc(-c3cc(C)nn3C)c2)C2=CN=NC2NC2=C1C(=O)CC(C)(C)[C@@H]2F (some centres not stated) [US20250313563, Compound 947655] | < 100 nM | 100 to 1000 nM
CC[C@@]1(c2cccc(-c3cc(C)nn3C)c2)C2=CN=NC2NC2=C1C(=O)CC(C)(C)[C@H]2F (some centres not stated) [US20250313563, Compound 947656] | 100 to 1000 nM | > 5000 nM
CC[C@@]1(c2cccc(-c3cc(C)nn3C)c2)C2=CN=NC2NC2=C1C(=O)CC(C)(C)[C@@H]2F (some centres not stated) [US20250313563, Compound 947657] | 100 to 1000 nM | > 5000 nM
CC[C@@]1(c2cccc(-c3c(C)cncc3C)c2)C2=CN=NC2NC2=C1C(=O)CC(C)(C)C2 (some centres not stated) [US20250313563, Compound 947659] | < 100 nM | 100 to 1000 nM
CC[C@]1(c2cccc(Cc3ncccc3C(F)(F)F)c2)C2=CN=NC2NC2=C1C(=O)CC(C)(C)C2 (some centres not stated) [US20250313563, Compound 947664] | < 100 nM | 100 to 1000 nM
CC[C@@]1(c2cccc(Cc3ncccc3C(F)(F)F)c2)C2=CN=NC2NC2=C1C(=O)CC(C)(C)C2 (some centres not stated) [US20250313563, Compound 947665] | 1000 to 5000 nM | > 5000 nM
CCC1(c2cccc(N3CCCC3)c2)C2=C(CC(C)(C)NC2=O)NC2N=NC(C)=C21 (configuration not stated) [US20250313563, Compound 947673] | < 100 nM | 100 to 1000 nM
CCC1(c2cccc(N3CCCCC3)c2)C2=C(CC(C)(C)NC2=O)NC2N=NC(C)=C21 (configuration not stated) [US20250313563, Compound 947674] | < 100 nM | 100 to 1000 nM
CCC1(c2cccc(-c3ccnc4c3CCC4)c2)C2=C(CC(C)(C)NC2=O)NC2N=NC(C)=C21 (configuration not stated) [US20250313563, Compound 947675] | < 100 nM | 100 to 1000 nM
CCC1(c2cccc(-c3ccnc4c3CCC4)c2)C2=CN=NC2NC2=C1C(=O)NC(C)(C)C2 (configuration not stated) [US20250313563, Compound 947676] | < 100 nM | 100 to 1000 nM
CCC1(c2cccc(C3=CN=NC3)c2)C2=C(CC(C)(C)NC2=O)NC2N=NC(C(F)(F)F)=C21 (configuration not stated) [US20250313563, Compound 947677] | < 100 nM | < 100 nM
CC1CC(C(=O)N2CC3(C2)C[C@]2(CO3)C3=C(N=NC3)NC3=C2C(=O)CC(C)(C)C3)C1 (some centres not stated) [US20250313563, Compound 947732] | 100 to 1000 nM | 1000 to 5000 nM
CC1(C)CC(=O)C2=C(C1)NC1=C(CN=N1)[C@]21COC2(CN(C(=O)C3(F)CCC3)C2)C1 [US20250313563, Compound 947735] | < 100 nM | < 100 nM
CCC1(c2cccc(C(F)(F)F)c2)C2=CN=NC2NC2=C1C(=O)N(c1ccc(F)cc1)CC2 (configuration not stated) [US20250313563, Compound 947748] | < 100 nM | 100 to 1000 nM
CCC1(c2cccc(-c3ccnc(C)c3)c2)C2=C(CC(C)(C)NC2=O)NC2N=NC(C)=C21 (configuration not stated) [US20250313563, Compound 947798] | < 100 nM | 100 to 1000 nM
CCC1(c2cccc(S(C)(=O)=O)c2)C2=C(CC(C)(C)NC2=O)NC2N=NC(C(F)(F)F)=C21 (configuration not stated) [US20250313563, Compound 947799] | < 100 nM | < 100 nM
CCC1(c2cccc(S(=O)(=O)C(C)C)c2)C2=C(CC(C)(C)NC2=O)NC2N=NC(C(F)(F)F)=C21 (configuration not stated) [US20250313563, Compound 947800] | < 100 nM | < 100 nM
CCC1(c2cccc(-c3cnn4c3CCCC4)c2)C2=C(CC(C)(C)NC2=O)NC2N=NC(C(F)(F)F)=C21 (configuration not stated) [US20250313563, Compound 947801] | < 100 nM | < 100 nM
CC[C@]1(c2cccc(S(=O)(=O)C3CC3)c2)C2=CN=NC2NC2=C1C(=O)NC(C)(C)C2 (some centres not stated) [US20250313563, Compound 947803] | < 100 nM | < 100 nM
CC[C@]1(c2cccc(-c3ccncc3F)c2)C2=C(CC(C)(C)NC2=O)NC2N=NC(C)=C21 (some centres not stated) [US20250313563, Compound 947805] | 100 to 1000 nM | 1000 to 5000 nM
CC[C@]1(c2cccc(-c3cnn(C)c3C)c2)C2=C(CC(C)(C)NC2=O)NC2N=NC(C(F)(F)F)=C21 (some centres not stated) [US20250313563, Compound 947807] | < 100 nM | 100 to 1000 nM
CC[C@]1(c2cccc(-c3cnn4c3CCCC4)c2)C2=C(CC(C)(C)NC2=O)NC2N=NC(C)=C21 (some centres not stated) [US20250313563, Compound 947809] | 100 to 1000 nM | 1000 to 5000 nM
CC[C@@]1(c2cccc(-c3ccnc(CCO)c3)c2)C2=CN=NC2NC2=C1C(=O)CC(C)(C)C2 (some centres not stated) [US20250313563, Compound 947810] | < 100 nM | 100 to 1000 nM
CC[C@]1(c2cccc(S(C)(=O)=O)c2)C2=C(CC(C)(C)NC2=O)NC2N=NC(C)=C21 (some centres not stated) [US20250313563, Compound 947811] | < 100 nM | < 100 nM
